Experiment [1] has as its system drug-resistant cell lines of Table 2 (NCI-H1437, OV207, HCC1806, NCI-H2172). Put plainly: Cell Line Growth Retardation Assay, resistant cohort. It counts as cell-based, human. As to conditions: geometric mean over resistant cohort, 6 days growth, read-out: AvgResIC50. The procedure:
(§1) Cells were seeded at densities of 1,000-5,000 cells per well in 48-well tissue culture plates. After a 24 hours rest period, cells were treated with compound at 10 μM, 2 μM, 0.4 μM, 0.08 μM, 0.016 μM, and 0.0032 μM. A group of cells were treated with the vehicle in which the compound was prepared and served as a control. The cells were grown in the presence of compounds for 6 days and were counted on day 0 and day 6. A11 cell counting was performed using a Synentec Cellavista plate imager. […] Growth inhibition was calculated as a ratio of cell population doublings in the presence of compound versus the absence of compound. […] IC50 values for each compound (see Table 3; reported in μM) were calculated by fitting curves to data points from each dose-response assay using the Proc NLIN function in SAS for Windows version 9.2 (SAS Institute, Inc.).
(§2) These sensitive and resistant cohorts were interrogated for response to each compound, and IC50s were calculated for each cell line using the same technique described above. Average IC50s for the sensitive and resistant cohorts were calculated as geometric means of the group. “Therapeutic Window” for each compound was calculated by dividing the average IC50 for the drug-resistant group by the average IC50 for the drug-sensitive group.

Experiment [2] concerns drug-sensitive cell lines of Table 2 (EFM-19, MDA-MB-453, T-47D, ZR-75-1, NCI-H441, OVTOKO, NCI-H1838). Put plainly: Cell Line Growth Retardation Assay, sensitive cohort. The note with it: for pIC50: geometric mean over sensitive cohort, 6 days growth, read-out: AvgSensIC50; for Ther Window: average IC50 drug-resistant group divided by average IC50 drug-sensitive group. It counts as cell-based, human. The procedure:
as §1, §2

The target in another experiment is CDK4 (Homo sapiens (Human), UniProt P11802). The experiment is described as follows: Cdk4 and 6 Enzymatic Inhibition Assay (radiometric 33PanQinase, Ki determination). It counts as biochemical. The procedure: (§3) 10 distinct concentrations were prepared, with a dilution endpoint of 6×10^−9 M in 100% DMSO. 100% DMSO was used as a control. 10 μL from each of the serial dilutions were aliquoted into separate wells of a 96-well plate and 90 μL of water were added to each of those wells. The plate was shaken thoroughly, and 5 μL from each of the plate's wells were transferred into wells of the assay plate. The final volume of wells in the assay plate was 50 μL. A11 compounds were tested at 10 assay concentrations in the range from 2×10^−6 M to 6×10^−11 M. The final DMSO concentration in the wells of the assay plate was 1% in all cases.
(§4) A radiometric protein kinase assay (33PanQinase® Activity Assay) was used for measuring the kinase activity of six protein kinases. A11 kinase assays were performed in 96-well FlashPlates™ from PerkinElmer (Boston, MA, USA). The assay for all protein kinases contained 70 mM HEPES-NaOH pH 7.5, 3 mM MgCl2, 3 mM MnCl2, 3 μM Na-orthovanadate, 1.2 mM DTT, 50 μg/mL PEG20000, ATP [γ-33P]-ATP (approx. 9×1005 cpm per well), protein kinase and substrate. The reaction cocktails were incubated at 30° C. for 60 minutes. The reaction was stopped with 50 μL of 2% (v/v) H3PO4, and plates were aspirated and washed two times with 200 μL 0.9% (w/v) NaCl. Incorporation of ^33Pi was determined with a microplate scintillation counter (Microbeta, Wallac).

Another experiment addresses CDK6 (Homo sapiens (Human), UniProt Q00534). The experiment is described as above. It counts as biochemical. The procedure: as §3, §4

pIC50, pKi: −log10 of the molar value. Read-outs that look alike come from different tables or passages of the source.

Sequence of CDK6 (Q00534 whole entry): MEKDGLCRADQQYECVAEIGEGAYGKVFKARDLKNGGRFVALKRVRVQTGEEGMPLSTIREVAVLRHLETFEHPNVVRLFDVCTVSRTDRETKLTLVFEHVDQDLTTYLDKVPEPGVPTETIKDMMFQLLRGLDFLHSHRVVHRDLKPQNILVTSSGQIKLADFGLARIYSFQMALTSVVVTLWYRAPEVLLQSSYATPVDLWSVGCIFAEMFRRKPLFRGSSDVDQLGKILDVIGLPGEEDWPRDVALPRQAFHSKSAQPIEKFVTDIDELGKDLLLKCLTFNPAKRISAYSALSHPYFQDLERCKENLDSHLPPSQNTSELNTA
Sequence of CDK6 (P24385 whole entry partner): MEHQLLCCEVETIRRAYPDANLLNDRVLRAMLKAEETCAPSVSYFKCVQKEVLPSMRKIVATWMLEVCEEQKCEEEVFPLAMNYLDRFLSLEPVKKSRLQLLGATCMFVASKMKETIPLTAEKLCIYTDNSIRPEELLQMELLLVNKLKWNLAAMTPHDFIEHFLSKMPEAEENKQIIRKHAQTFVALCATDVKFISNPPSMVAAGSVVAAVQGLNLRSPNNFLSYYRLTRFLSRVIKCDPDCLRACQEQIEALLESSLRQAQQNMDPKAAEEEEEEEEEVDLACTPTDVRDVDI
Sequence of CDK4 (P11802 whole entry): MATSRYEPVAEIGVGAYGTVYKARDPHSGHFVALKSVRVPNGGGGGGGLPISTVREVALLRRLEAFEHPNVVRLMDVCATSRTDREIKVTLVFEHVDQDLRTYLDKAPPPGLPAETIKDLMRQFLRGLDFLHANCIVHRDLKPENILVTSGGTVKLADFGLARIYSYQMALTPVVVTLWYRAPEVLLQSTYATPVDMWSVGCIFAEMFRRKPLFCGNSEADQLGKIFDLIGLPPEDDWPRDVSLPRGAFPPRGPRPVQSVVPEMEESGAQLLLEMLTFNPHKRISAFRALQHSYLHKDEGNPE
Sequence of CDK4 (P24385 whole entry partner): as the sequence (P24385 whole entry partner) above

Broadly, the pKi is the negative decadic logarithm of the Ki, by convention in mol/L. A lower pKi goes with a large Ki. As to `Cc1nc2c(F)cc(-c3nc(Nc4ccc(CN5CCO[C@@](C)(C[C@@H](C)O)C5)cn4)ncc3F)cc2n1C(C)C` (single isomer, unassigned) [Compound A52], the pIC50 in experiment [1] (Homo sapiens, […]) is 6.00; in experiment [2] (Homo sapiens, […]), 6.46. Moreover, in experiment [2], the “Ther Window” value is on record as 2.82. In addition, the results for the pKi at CDK4 and on CDK6 were 8.45 and 7.81, respectively.
For `Cc1nc2c(F)cc(-c3nc(Nc4ccc(CN5CCO[C@@](C)(C[C@H](C)O)C5)cn4)ncc3F)cc2n1C(C)C` (single isomer, unassigned) [Compound A53], the pIC50 was 6.00 in experiment [1] (Homo sapiens, […]) and 6.68 in experiment [2] (Homo sapiens, […]). The “Ther Window” value in experiment [2] is 4.85. Besides, the negative-log Ki (pKi) on CDK4 is 8.60; on CDK6 it was 7.92.
Regarding `CCN1CCN(Cc2ccc(Nc3ncc(F)c(-c4cc(F)c5nc(C)n(C(C)C)c5c4)n3)nc2)CC1` [Abemaciclib FB, Abemaciclib, reference compound], the pIC50 in experiment [1] was 6.17. For the same molecule, in experiment [2], the “Ther Window” value is 6.73 and the pIC50 was 7.00.
On to `Cc1nc2c(F)cc(-c3nc(Nc4ccc(CN5CCOC(C)(CCN(C)C)C5)cn4)ncc3F)cc2n1C(C)C` (centres unmarked) [Compound A4], for which the pIC50 in experiment [1] (Homo sapiens, […]) is 6.02; in experiment [2] (Homo sapiens, […]), 6.80. In addition, the “Ther Window” value in experiment [2] worked out at 5.80. Further, the pKi at CDK4 is 8.94; on CDK6, 8.29.
Turning to `Cc1nc2c(F)cc(-c3nc(Nc4ccc(CN5CCOC(C)(CC(C)N(C)C)C5)cn4)ncc3F)cc2n1C(C)C` (centres unmarked) [Compound A24], the pIC50 in experiment [1] is 6.89; in experiment [2], 7.40. Moreover, the “Ther Window” value in experiment [2] was found to be 3.02. The pKi on CDK4 is 10.40; at CDK6, 9.80.
In the case of `Cc1nc2c(F)cc(-c3nc(Nc4ccc(CN5CCOC(C)(CC(C)N(C)C)C5)cn4)ncc3F)cc2n1C(C)C` (centres unmarked) [Compound A25], the pIC50 in experiment [1] is 6.10; in experiment [2], 6.92. The “Ther Window” value in experiment [2] is listed as 6.52. The pKi is 9.10 at CDK4 and 8.46 on CDK6.
With `Cc1nc2c(F)cc(-c3nc(Nc4ccc(CN5CCO[C@@]6(CCNC6)C5)cn4)ncc3F)cc2n1C(C)C` [Compound A34, (R)—N-(5-((6-oxa-2,9-diazaspiro[4.5]decan-9-yl)methyl)pyridin-2-yl)-5-fluoro-4-(4-fluoro-1-isopropyl-2-methyl-1H-benzo[d]imidazol-6-yl)pyrimidin-2-amine], the pIC50 in experiment [1] (Homo sapiens, […]) is 6.00; in experiment [2] (Homo sapiens, […]) it was 6.70. In addition, the “Ther Window” value in experiment [2] is recorded as 5.02.
Taken in the same sequence, the figures for `Cc1nc2c(F)cc(-c3nc(Nc4ccc(CN5CCO[C@]6(CCNC6)C5)cn4)ncc3F)cc2n1C(C)C` [Compound A35] were 6.00, 6.72 and 5.36.
On to `Cc1nc2c(F)cc(-c3nc(Nc4ccc(CN5CCOC6(CCOC6)C5)cn4)ncc3F)cc2n1C(C)C` (centres unmarked) [Compound A40], for which the pIC50 in experiment [1] (Homo sapiens, […]) is 6.01; in experiment [2] (Homo sapiens, […]), 6.35. In addition, the “Ther Window” value in experiment [2] was 2.18. Moreover, the negative-log Ki (pKi) is 8.64 at CDK4 and 8.10 at CDK6.
As to `Cc1nc2c(F)cc(-c3nc(Nc4ccc(CN5CCO[C@@]6(CCN(C(=O)OC(C)(C)C)C6)C5)cn4)ncc3F)cc2n1C(C)C` [Compound A41, tert-butyl (S)-9-((6-((5-fluoro-4-(4-fluoro-1-isopropyl-2-methyl-1H-benzo[d]imidazol-6-yl)pyrimidin-2-yl)amino)pyridin-3-yl)methyl)-6-oxa-2,9-diazaspiro[4.5]decane-2-carboxylate], the negative-log Ki (pKi) at CDK4 was 7.95; on CDK6 it was 7.13.
`Cc1nc2c(F)cc(-c3nc(Nc4ccc(CN5CCO[C@]6(CCN(C(=O)OC(C)(C)C)C6)C5)cn4)ncc3F)cc2n1C(C)C` [Compound A42]: the values for the pKi at CDK4 and at CDK6 were 8.19 and 7.46, respectively.
Consider `C=CC[C@@]1(C)CN(Cc2ccc(Nc3ncc(F)c(-c4cc(F)c5nc(C)n(C(C)C)c5c4)n3)nc2)CCO1` [Compound A45, (S)—N-(5-((2-allyl-2-methylmorpholino)methyl)pyridin-2-yl)-5-fluoro-4-(4-fluoro-1-isopropyl-2-methyl-1H-benzo[d]imidazol-6-yl)pyrimidin-2-amine], for which the pIC50 in experiment [1] (Homo sapiens, […]) was 6.00; in experiment [2] (Homo sapiens, […]), 6.11. In experiment [2], the “Ther Window” value is 1.29. The pKi on CDK4 is 8.46; at CDK6, 8.84.
Regarding `CCCC1(C)CN(Cc2ccc(Nc3ncc(F)c(-c4cc(F)c5nc(C)n(C(C)C)c5c4)n3)nc2)CCO1` (centres unmarked) [Compound A46], the pIC50 is 6.00 in experiment [1] (Homo sapiens, […]) and 6.10 in experiment [2] (Homo sapiens, […]). Moreover, the “Ther Window” value in experiment [2] was 1.26. The figures for the negative-log Ki (pKi) at CDK4 and at CDK6 were 8.29 and 8.71, respectively.
On to `Cc1nc2c(F)cc(-c3nc(Nc4ccc(CN5CCOC(C)(C)C5)cn4)ncc3F)cc2n1C(C)C` [Compound A48], for which the pIC50 is 6.00 in experiment [1] (Homo sapiens, […]) and 6.19 in experiment [2] (Homo sapiens, […]). Besides, the “Ther Window” value in experiment [2] amounted to 1.56. In addition, the pKi at CDK4 is 8.75; on CDK6, 8.97.
For `Cc1nc2c(F)cc(-c3nc(Nc4ccc(CN5CCOC(C)(CO)C5)cn4)ncc3F)cc2n1C(C)C` (centres unmarked) [Compound A51], in that order: 6.00, 6.21, 1.62, 8.10 and 7.42.
Regarding `CCOCC[C@]1(C)CN(Cc2ccc(Nc3ncc(F)c(-c4cc(F)c5nc(C)n(C(C)C)c5c4)n3)nc2)CCO1` [Compound A54], the pIC50 in experiment [1] (Homo sapiens, […]) is 6.00; in experiment [2] (Homo sapiens, […]), 6.00. Moreover, in experiment [2], the “Ther Window” value was 1.00. For the same molecule, the negative-log Ki (pKi) at CDK4 is 7.57; on CDK6, 6.97.
For `Cc1nc2c(F)cc(-c3nc(Nc4ccc(CN5CCO[C@](C)(CC(=O)N6CC(F)(F)C6)C5)cn4)ncc3F)cc2n1C(C)C` [Compound A56, (R)-1-(3,3-difluoroazetidin-1-yl)-2-(4-((6-((5-fluoro-4-(4-fluoro-1-isopropyl-2-methyl-1H-benzo[d]imidazol-6-yl)pyrimidin-2-yl)amino)pyridin-3-yl)methyl)-2-methylmorpholin-2-yl)ethan-1-one], the pIC50 in experiment [1] (Homo sapiens, […]) is 6.00; in experiment [2] (Homo sapiens, […]), 6.59. For the same molecule, the “Ther Window” value in experiment [2] is 3.76. Also, the pKi at CDK4 is 8.62; on CDK6, 7.83.
For `CCN(CC)C(=O)C[C@]1(C)CN(Cc2ccc(Nc3ncc(F)c(-c4cc(F)c5nc(C)n(C(C)C)c5c4)n3)nc2)CCO1` [Compound A57, (R)-2-(4-((6-((5-fluoro-4-(4-fluoro-1-isopropyl-2-methyl-1H-benzo[d]imidazol-6-yl)pyrimidin-2-yl)amino)pyridin-3-yl)methyl)-2-methylmorpholin-2-yl)-N,N-diethylacetamide], the pIC50 in experiment [1] (Homo sapiens, […]) is 6.00; in experiment [2] (Homo sapiens, […]), 6.41. In experiment [2], the “Ther Window” value worked out at 2.56. Besides, the pKi is 8.41 at CDK4 and 7.62 at CDK6.
Turning to `Cc1nc2c(F)cc(-c3nc(Nc4ccc(CN5CCO[C@](C)(CC(=O)N6CCC6)C5)cn4)ncc3F)cc2n1C(C)C` [Compound A58, (R)-1-(azetidin-1-yl)-2-(4-((6-((5-fluoro-4-(4-fluoro-1-isopropyl-2-methyl-1H-benzo[d]imidazol-6-yl)pyrimidin-2-yl)amino)pyridin-3-yl)methyl)-2-methylmorpholin-2-yl)ethan-1-one], the pIC50 in experiment [1] (Homo sapiens, […]) is 6.00; in experiment [2] (Homo sapiens, […]) it was 6.47. In experiment [2], the “Ther Window” value is 2.94. For the same molecule, the pKi was 8.58 at CDK4 and 7.70 on CDK6.

Source of the values: patent US12486280B2, “CDK inhibitors and uses thereof” (California Institute of Technology, priority 2018, dated 2025).
